Measured values reported in PubChem BioAssay (NCI).
“And” between values parts separate entries of the source, which are not always exact repeats. Equal values may be shown once.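 Five concentrations, 48 hours, 96-well plates. GI50 = concentration required for 50% inhibition of growth. At the TGI there is no net growth.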

Key:
Assay in all cases: growth of human tumour cells (NCI), 48 h
A498 renal = system: A498 renal
NCI-H226 lung = system: NCI-H226 lung
UO-31 renal = system: UO-31 renal
HL-60(TB) leukemia = system: HL-60(TB) leukemia
HCC-2998 colon = system: HCC-2998 colon
OVCAR-3 ovarian = system: OVCAR-3 ovarian
RXF 393 renal = system: RXF 393 renal
KM12 colon = system: KM12 colon
M14 melanoma = system: M14 melanoma
COLO 205 colon = system: COLO 205 colon
U251 CNS = system: U251 CNS
EKVX NSCLC = system: EKVX NSCLC
SN12C renal = system: SN12C renal
SF-539 CNS = system: SF-539 CNS

Structure (SMILES): N/C(=N\Nc1ccc(Cl)cc1)c1cnccn1
- TGI (A498 renal): > 100 µM
- TGI (NCI-H226 lung): > 100 µM
- TGI (UO-31 renal): > 100 µM
- TGI (HL-60(TB) leukemia): > 100 µM
- TGI (HCC-2998 colon): 79.1 µM
- TGI (OVCAR-3 ovarian): > 100 µM
- TGI (RXF 393 renal): > 100 µM
- TGI (KM12 colon): > 100 µM
- TGI (M14 melanoma): > 100 µM
- TGI (COLO 205 colon): 40.1 µM
- TGI (U251 CNS): > 100 µM
- TGI (EKVX NSCLC): > 100 µM
- TGI (SN12C renal): > 100 µM

Structure (SMILES): COC(=O)CCNc1c2ccccc2nc2cccc([N+](=O)[O-])c12
- GI50 (A498 renal): 0.0185 µM
- TGI (A498 renal): 0.0585 µM
- GI50 (NCI-H226 lung): 0.00347 µM
- TGI (NCI-H226 lung): 0.0333 µM and 0.0378 µM
- GI50 (UO-31 renal): 0.00139 µM
- TGI (UO-31 renal): 0.00492 µM and 0.0113 µM
- GI50 (HL-60(TB) leukemia): 0.00274 µM
- TGI (HL-60(TB) leukemia): 0.028 µM
- GI50 (HCC-2998 colon): 1.04 µM
- TGI (HCC-2998 colon): 2.33 µM
- TGI (OVCAR-3 ovarian): 0.00397 µM
- GI50 (SF-539 CNS): 0.00238 µM and 0.0131 µM
- TGI (SF-539 CNS): 0.0115 µM and 0.0395 µM
- TGI (RXF 393 renal): 0.00217 µM
- TGI (KM12 colon): 0.00451 µM
- TGI (COLO 205 colon): 0.0171 µM
- TGI (U251 CNS): 0.127 µM and 0.0318 µM
- TGI (SN12C renal): 0.0168 µM

Structure (SMILES): Cc1ccc(-c2cc[n+]3c(n2)oc2ccccc23)cc1
- TGI (A498 renal): 65.4 µM
- TGI (UO-31 renal): > 100 µM
- TGI (HL-60(TB) leukemia): 44.2 µM
- TGI (HCC-2998 colon): > 100 µM
- TGI (OVCAR-3 ovarian): 40.9 µM
- TGI (SF-539 CNS): 58.6 µM
- TGI (KM12 colon): > 100 µM
- TGI (M14 melanoma): 84.5 µM
- TGI (COLO 205 colon): 68.5 µM
- TGI (U251 CNS): > 100 µM
- TGI (EKVX NSCLC): 56.2 µM
- TGI (SN12C renal): > 100 µM

Structure (SMILES): O=C1CC(=O)NC(=NN2C(=O)CSC2C(=O)c2ccco2)N1 (centres undefined)
- TGI (A498 renal): > 100 µM
- TGI (NCI-H226 lung): > 100 µM
- TGI (UO-31 renal): > 100 µM
- TGI (HCC-2998 colon): > 100 µM
- TGI (OVCAR-3 ovarian): > 100 µM
- TGI (SF-539 CNS): > 100 µM
- TGI (RXF 393 renal): > 100 µM
- TGI (KM12 colon): > 100 µM
- TGI (M14 melanoma): > 100 µM
- TGI (COLO 205 colon): > 100 µM
- TGI (U251 CNS): > 100 µM
- TGI (SN12C renal): > 100 µM

Structure (SMILES): NCCCNOCCCN
- TGI (A498 renal): > 100 µM
- TGI (UO-31 renal): > 100 µM
- TGI (HCC-2998 colon): > 100 µM
- TGI (OVCAR-3 ovarian): > 100 µM
- TGI (SF-539 CNS): > 100 µM
- TGI (RXF 393 renal): > 100 µM
- TGI (KM12 colon): > 100 µM
- TGI (M14 melanoma): > 100 µM
- TGI (COLO 205 colon): > 100 µM
- TGI (U251 CNS): > 100 µM
- TGI (SN12C renal): > 100 µM

Structure (SMILES): CCOC(=O)C(=CNC(=S)N=Nc1c(O)[nH]c2ccccc12)C(=O)OCC
- TGI (A498 renal): > 100 µM
- TGI (NCI-H226 lung): > 100 µM
- TGI (UO-31 renal): > 100 µM
- TGI (HL-60(TB) leukemia): > 100 µM
- TGI (HCC-2998 colon): > 100 µM
- TGI (OVCAR-3 ovarian): > 100 µM
- TGI (SF-539 CNS): > 100 µM
- TGI (RXF 393 renal): > 100 µM
- TGI (KM12 colon): > 100 µM
- TGI (M14 melanoma): > 100 µM
- TGI (COLO 205 colon): > 100 µM
- TGI (U251 CNS): > 100 µM
- TGI (SN12C renal): > 100 µM

Structure (SMILES): CCOC(=O)[C@@]1(C)CC(O)C(=O)N1C (some centres undefined)
- TGI (NCI-H226 lung): > 100 µM
- TGI (UO-31 renal): > 100 µM
- TGI (HL-60(TB) leukemia): > 100 µM
- TGI (HCC-2998 colon): > 100 µM
- TGI (OVCAR-3 ovarian): > 100 µM
- TGI (SF-539 CNS): > 100 µM
- TGI (RXF 393 renal): > 100 µM
- TGI (KM12 colon): > 100 µM
- TGI (M14 melanoma): > 100 µM
- TGI (COLO 205 colon): > 100 µM
- TGI (U251 CNS): > 100 µM
- TGI (EKVX NSCLC): > 100 µM
- TGI (SN12C renal): > 100 µM

Structure (SMILES): CCCCSC1=N/C(=C\c2ccc(N(C)C)cc2)C(=O)N1
- TGI (A498 renal): 40.4 µM
- TGI (NCI-H226 lung): 54.2 µM
- TGI (HL-60(TB) leukemia): > 100 µM
- TGI (OVCAR-3 ovarian): 73.1 µM
- TGI (SF-539 CNS): 63.9 µM
- TGI (RXF 393 renal): > 100 µM
- TGI (KM12 colon): > 100 µM
- TGI (M14 melanoma): > 100 µM
- TGI (COLO 205 colon): > 100 µM
- TGI (U251 CNS): 48.2 µM
- TGI (EKVX NSCLC): 76.5 µM
- TGI (SN12C renal): 33.5 µM

Structure (SMILES): Cc1cc(Nc2ccc(NS(C)(=O)=O)cc2)c2c(ccc3nccc32)[nH]1
- TGI (A498 renal): 43 µM
- TGI (NCI-H226 lung): 41.9 µM
- TGI (UO-31 renal): > 100 µM
- TGI (OVCAR-3 ovarian): 29.1 µM
- TGI (KM12 colon): 36.2 µM
- TGI (M14 melanoma): 31.1 µM
- TGI (COLO 205 colon): 35.8 µM
- TGI (U251 CNS): 29 µM
- TGI (EKVX NSCLC): > 100 µM
- TGI (SN12C renal): 38.9 µM
